Columns and labels:
[1] = tested on: winter barley; assay: Test E winter barley; format: in vivo, Hordeum vulgare; details: Postemergence; for Plant response rating, Barley (winter): 0 to 100 scale
Outline: (§1)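 Compounds formulated in non-phytotoxic solvent mixture with surfactant; for postemergence, sprayed on plants at 1- to 4-leaf stage grown in 60:40 sandy loam/greenhouse potting mix. Kept in greenhouse ~21 to 28 days, then visually rated against untreated controls.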

[2] = tested on: Russian thistle; assay: Test E Russian thistle; format: in vivo, Salsola kali; details: Postemergence; for Plant response rating, Russian thistle: 0 to 100 scale
Outline: as §1

[3] = tested on: downy brome; assay: Test E downy brome; format: in vivo, Bromus tectorum; details: Preemergence
[4] = tested on: large crabgrass; assay: Test D large crabgrass; format: in vivo, Digitaria sanguinalis; details: Postemergence, 0 to 100 scale
[5] = tested on: spring barley; assay: Test E spring barley; format: in vivo, Hordeum vulgare; details: Postemergence; for Plant response rating, Spring Barley: 0 to 100 scale
Outline: as §1

[6] = tested on: sugar beet; assay: Test E sugar beet; format: in vivo, Beta vulgaris; details: Preemergence
[7] = tested on: wild buckwheat; assay: Test E wild buckwheat; format: in vivo, Polygonum convolvulus; details: Postemergence; for Plant response rating, Wild buckwheat: 0 to 100 scale
Outline: as §1

[8] = tested on: deadnettle; assay: Test E deadnettle; format: in vivo, Lamium amplexicaule; details: Preemergence
[9] = tested on: goosegrass; assay: Test D goosegrass; format: in vivo, Eleusine indica; details: Postemergence, 0 to 100 scale
[10] = tested on: lambsquarters; assay: Test E lambsquarters; format: in vivo, Chenopodium album; details: Postemergence; for Plant response rating Lambsquarters: 0 to 100 scale
Outline: as §1

[11] = tested on: rape; assay: Test E rape; format: in vivo, Brassica napus; details: Postemergence; for Plant response rating, Rape: 0 to 100 scale
Outline: as §1

[12] = tested on: sandbur; assay: Test D sandbur; format: in vivo, Cenchrus echinatus; details: Postemergence, 0 to 100 scale
[13] = tested on: spring wheat; assay: Test E spring wheat; format: in vivo, Triticum aestivum; details: Preemergence
[14] = tested on: Johnson grass; assay: Test D Johnson grass; format: in vivo, Sorghum halepense; details: Postemergence, 0 to 100 scale
[15] = tested on: wild mustard; assay: Test E wild mustard; format: in vivo, Sinapis arvensis; details: Preemergence
[16] = tested on: jointed goatgrass; assay: Test E jointed goatgrass; format: in vivo, Aegilops cylindrica; details: Postemergence; for Plant response rating, Jointed goatgra: 0 to 100 scale
Outline: as §1

[17] = tested on: green foxtail; assay: Test E green foxtail; format: in vivo, Setaria viridis; details: Postemergence; for Plant response rating, Green foxtail: 0 to 100 scale
Outline: as §1

[18] = tested on: black nightshade; assay: Test E black nightshade; format: in vivo, Solanum nigra; details: Preemergence
[19] = tested on: bermuda-grass; assay: Test D bermudagrass; format: in vivo, Cynodon dactylon; details: Postemergence, 0 to 100 scale
[20] = tested on: annual bluegrass; assay: Test E annual bluegrass; format: in vivo, Poa annua; details: Preemergence
[21] = tested on: wild buckwheat; assay: Test E wild buckwheat; format: in vivo, Polygonum convolvulus; details: Preemergence
[22] = tested on: chickweed; assay: Test E chickweed; format: in vivo, Stellaria media; details: Preemergence
[23] = tested on: itchgrass; assay: Test D itchgrass; format: in vivo, Rottboellia exaltata; details: Postemergence, 0 to 100 scale
[24] = tested on: common pursiane; assay: Test D common purslane; format: in vivo, Portulaca oleracea; details: Postemergence, 0 to 100 scale
[25] = Rate 500 g/ha, 0 no effect, 100 complete control
[26] = Rate 250 g/ha, 0 to 100 scale where 0 is no effect and 100 is complete control
[27] = Rate 125 g/ha, 0 to 100 scale (0 no effect, 100 complete control)
[28] = Rate 500 g/ha, 0 to 100 scale where 0 is no effect and 100 is complete control
[29] = Rate 64 g/ha, 0 no injury, 100 complete control
[30] = Rate 125 g/ha, 0 no injury, 100 complete control

What does the source list for `C=CCn1c(=O)on(C(=O)N(c2ccc(F)cc2)C(C)C)c1=O` [Compound 146]?
Plant response rating, Barley (winter) ([1]; Rate 62 g/ha): 5; Plant response rating, Barley (winter) ([1]; Rate 125 g/ha): 10; Plant response rating, Barley (winter) [1, 25]: 20; Barley (winter) plant response rating [1, 26]: 10; Plant response rating, Russian thistle ([2]; Rate 62 g/ha): 20; Plant response rating, Russian thistle ([2]; Rate 125 g/ha): 0; Plant response rating, Russian thistle [2, 25]: 0; Russian thistle plant response rating [2, 26]: 0; Plant response rating, Downy brome [3, 27]: 60; Downy brome plant response rating (0 to 100 scale) ([3]; Rate 250 g/ha): 0; Plant response rating, Downy brome [3, 28]: 60; Plant response rating Large crabgrass [4, 29]: 20; Plant response rating Large crabgrass [4, 30]: 20; Plant response rating Large crabgrass ([4]; Rate 250 g/ha): 50; Plant response rating Large crabgrass ([4]; Rate 500 g/ha): 65; Plant response rating, Spring Barley ([5]; Rate 62 g/ha): 20; Plant response rating, Spring Barley ([5]; Rate 125 g/ha): 10; Plant response rating, Spring Barley [5, 25]: 20; Spring Barley plant response rating [5, 26]: 10; Plant response rating, Sugar beet [6, 27]: 60; Sugar beet plant response rating (0 to 100 scale) ([6]; Rate 250 g/ha): 60; Plant response rating, Sugar beet [6, 28]: 80; Plant response rating, Wild buckwheat ([7]; Rate 62 g/ha): 20; Plant response rating, Wild buckwheat ([7]; Rate 125 g/ha): 0; Plant response rating, Wild buckwheat [7, 25]: 50; Wild buckwheat plant response rating [7, 26]: 10; Plant response rating, Deadnettle [8, 27]: 40; Deadnettle plant response rating (0 to 100 scale) ([8]; Rate 250 g/ha): 40; Plant response rating, Deadnettle [8, 28]: 50; Plant response rating, Goosegrass [9, 29]: 0; Plant response rating, Goosegrass [9, 30]: 35; Plant response rating, Goosegrass ([9]; Rate 250 g/ha): 30; Plant response rating, Goosegrass ([9]; Rate 500 g/ha): 80; Plant response rating Lambsquarters ([10]; Rate 62 g/ha): 50; Plant response rating Lambsquarters ([10]; Rate 125 g/ha): 20; Plant response rating Lambsquarters [10, 25]: 50; Lambsquarters plant response rating [10, 26]: 10; Plant response rating, Rape ([11]; Rate 62 g/ha): 60; Plant response rating, Rape ([11]; Rate 125 g/ha): 40; Plant response rating, Rape [11, 25]: 60; Rape plant response rating [11, 26]: 50; Sandbur plant response rating [12, 29]: 0; Plant response rating, Sandbur ([12]; Rate 250 g/ha): 85; Plant response rating, Sandbur ([12]; Rate 500 g/ha): 80; Plant response rating, Spring Wheat [13, 27]: 50; Spring Wheat plant response rating (0 to 100 scale) ([13]; Rate 250 g/ha): 80; Plant response rating, Spring Wheat [13, 28]: 100; Plant response rating Johnsongrass [14, 29]: 20; Plant response rating Johnsongrass [14, 30]: 35; Plant response rating Johnsongrass ([14]; Rate 250 g/ha): 50; Plant response rating Johnsongrass ([14]; Rate 500 g/ha): 65; Plant response rating, Wild mustard [15, 27]: 60; Wild mustard plant response rating (0 to 100 scale) ([15]; Rate 250 g/ha): 95; Plant response rating, Wild mustard [15, 28]: 100; Plant response rating, Jointed goatgra ([16]; Rate 62 g/ha): 55; Plant response rating, Jointed goatgra ([16]; Rate 125 g/ha): 15; Plant response rating, Jointed goatgra [16, 25]: 40; Jointed goatgra plant response rating [16, 26]: 10; Plant response rating, Green foxtail ([17]; Rate 62 g/ha): 70; Plant response rating, Green foxtail ([17]; Rate 125 g/ha): 20; Plant response rating, Green foxtail [17, 25]: 80; Green foxtail plant response rating [17, 26]: 70; Plant response rating, Blk nightshade [18, 27]: 85; Blk nightshade plant response rating (0 to 100 scale) ([18]; Rate 250 g/ha): 10; Plant response rating, Blk nightshade [18, 28]: 100; Plant response rating, Bermudagrass [19, 29]: 0; Plant response rating, Bermudagrass [19, 30]: 0; Plant response rating, Bermudagrass ([19]; Rate 250 g/ha): 0; Plant response rating, Bermudagrass ([19]; Rate 500 g/ha): 35; Plant response rating, Annual bluegras [20, 27]: 60; Annual bluegras plant response rating (0 to 100 scale) ([20]; Rate 250 g/ha): 80; Plant response rating, Annual bluegras [20, 28]: 90; Plant response rating, Wild buckwheat [21, 27]: 70; Wild buckwheat plant response rating (0 to 100 scale) ([21]; Rate 250 g/ha): 85; Plant response rating, Wild buckwheat [21, 28]: 100; Plant response rating, Chickweed [22, 27]: 30; Chickweed plant response rating (0 to 100 scale) ([22]; Rate 250 g/ha): 80; Plant response rating, Chickweed [22, 28]: 70; Plant response rating, Itchgrass [23, 29]: 30; Plant response rating, Itchgrass [23, 30]: 30; Plant response rating, Itchgrass ([23]; Rate 250 g/ha): 50; Plant response rating, Itchgrass ([23]; Rate 500 g/ha): 65; Plant response rating, C. purslane [24, 29]: 0; Plant response rating, C. purslane [24, 30]: 0; Plant response rating, C. purslane ([24]; Rate 250 g/ha): 20; Plant response rating, C. purslane ([24]; Rate 500 g/ha): 20

Reference: patent US6737383B1, “Herbicidal oxadiazolidines” (priority 1999, dated 2004)
